Here are results for three compounds from patent publication US7642085B2, “Protein arrays” (priority 2002, dated 2010).

The test system of one series is E. coli DH10B cells. Description: growth rate of cells grown in the presence of the unnatural amino acid. The settings on record: 1 mM; cells transformed with mutRNACUA^Tyr, LW1RS and Z domain gene (Lys7TAG).
Series [1] deals with mutant Z domain protein expressed by mutRNACUA^Tyr/LW1RS. Description: fidelity of unnatural amino acid incorporation into Z domain (Lys7TAG), by FT-ICR MS. Set-up: species or system E. coli. The settings on record: from a signal-to-noise ratio of more than 1500 in the intact protein mass spectrum.
From the text: Plasmid pLEIZ was used to express the Z-domain gene with an amber codon at the 7th position and a COOH-terminal His6 tag under the control of a bacteriophage T5 promoter and t0 terminator, and the mutRNACUA^Tyr gene under the control of the lpp promoter and rrnC terminator. The mutant synthetase gene isolated from clone LW1 (LW1RS) was encoded in plasmid pBK-LW1RS under the control of the constitutive E. coli GlnRS promoter and terminator. E. coli DH10B cells cotransformed with pLEIZ and pBK-LW1RS were grown in minimal media containing 1% glycerol and 0.3 mM leucine (GMML media) with 25 μg/mL kanamycin, 34 μg/mL of chloramphenicol, and 1.0 mM p-acetyl-(±)-phenylalanine. When cells reach an OD600 of 0.5, isopropyl-β-D-thiogalactopyranoside (IPTG) (1 mM) was added to induce polypeptide expression. […] The yield of polypeptide was measured by Bradford assay (BCA kit, Biorad, Hercules, Calif.). […]
To test the ability of the evolved synthetase and the mutRNACUA^Tyr to selectively incorporate p-acetyl-L-phenylalanine into polypeptides, an amber stop codon was substituted at a permissive site (Lys7) in the gene for the Z domain of staphylococcal protein A (32) with a COOH-terminal His6 tag. Z domain has a molecular weight of about 7.9 kD, so its mass can be measured with very high accuracy using ion cyclotron resonance mass spectrometry. […]
Series [2] deals with E. coli cells expressing mutant TyrRS and mutRNACUA^Tyr. Kind of series: in vivo CAT assay: chloramphenicol resistance of cells expressing selected mutant TyrRS and mutRNACUA^Tyr (Asp112TAG CAT gene). Type of series: cell-based, Escherichia coli. Particulars: for IC50: Escherichia coli, read-out: IC50 value of chloramphenicol, eleven mutant TyrRS. As for the experimental part: In the positive selection, plasmid pYC-J17 was used to express the mutRNACUA^Tyr gene and the chloramphenicol acetyl transferase (CAT) gene with a TAG stop codon at Asp112 (4). Supercoiled DNA encoding the TyrRS library was transformed into E. coli DH10B competent cells containing pYC-J17. Cells were then plated on minimal media plates containing 1% glycerol and 0.3 mM leucine (GMML) with 17 μg/mL tetracycline, 25 μg/mL kanamycin, 60 μg/mL of chloramphenicol, and 1 mM p-acetyl-L-phenylalanine. After incubation at 37° C. for 40 hours, colonies were pooled, and plasmids were isolated. Plasmids encoding mutant synthetases (pBK plasmids) were separated from pYC-J17 using gel electrophoresis and transformed into E. coli DH10B competent cells containing pLWJ17B3 for negative selection. […] Transformed cells were grown on LB (Luria-Bertani) plates containing 0.2% arabinose, 50 μg/ml kanamycin, and 35 μg/ml chloramphenicol. After 8 hours, cells were removed from the plate, and pBK plasmids were purified for further rounds of selection. In the second and third round of positive selection, the concentration of chloramphenicol was increased to 80 and 100 μg/mL, respectively. […] The polypeptide sequences of these mutant TyrRS converged on 3 independent clones LW1, LW5 and LW6, although the codon usage of each mutant TyrRS differs.
The Methanococcus jannaschii tyrosyl-tRNA synthetase (TyrRS) and a mutant tyrosine amber suppressor tRNA (mutRNACUA^Tyr) were used as the starting point for the generation of the orthogonal tRNA-synthetase pairs. […] To change the amino acid specificity of the TyrRS so that it charges p-acetyl-L-phenylalanine and not any of the common 20 amino acids, a library of M. jannaschii TyrRS mutants was generated and screened. The crystal structure of the homologous Bacillus stearothertnophilus TyrRS (31) was used to identify those residues that are within 6.5 Å of the para position of the aryl ring of bound tyrosine. Five corresponding residues (Tyr32, Glu107, Asp158, Ile159 and Leu162) in the active site of M. jannaschii TyrRS were randomly mutated by polymerase chain reaction (PCR) to generate a library 1.6×10^9 in size (4). This TyrRS mutant library was first passed through a positive selection in the presence of 1 mM p-acetyl-L-phenylalanine which is based on the suppression of an amber stop codon at nonessential residue (Asp 112) in chloramphenicol acetyl transferase (CAT) gene encoded on plasmid pYC-J17 (4) in E. coli. Cells surviving in chloramphenicol must encode a mutant synthetase that aminoacylates the mutRNACUA^Tyr with either a common amino acid(s) or p-acetyl-L-phenylalanine. […]

Series [3] concerns cells harboring mutant TyrRS plasmids. Kind of series: chloramphenicol resistance of cells harboring mutant TyrRS plasmids selected for m-acetyl phenylalanine. It is filed as cell-based. An excerpt: Preparation of Mutant TyrRS Library Plasmids. A library of plasmids encoding mutant M. jannaschii TryRSs directed at meta-substituted tyrosine derivatives was constructed, generally following the methods described in Example 1 of WO 2002/085923. Briefly, six residues (Tyr^32, Ala^67, His^70, Gln^155, Asp^158, Ala^167) in the active site of M. jannaschii TyrRS that are within 6.9 Å of the meta-position of the aryl ring of bound tyrosine in the crystal structure of Bacillus stearothermophilus TyrRS were mutated to all 20 amino acids at DNA level using the NNK codon scheme as described in Example 1 above. The constructed plasmid library pBK-lib contained around 1×10^9 independent clones.
Evolution of Orthogonal tRNA-synthetase Pairs for Incorporation of m-acetyl Phenylalanine. After 3 rounds of positive selection and 2 rounds of negative selection, five candidate clones (SEQ ID NO: 17-21 of WO 2002/085923) emerged whose survival in chloramphenicol was dependent on the addition of the unnatural amino acid. In the absence of m-acetyl phenylalanine, the IC50 of chloramphenicol resistance for cells harboring the one of the […] mutant TyrRS plasmids is 20 μg/ml. In the presence of m-acetyl phenylalanine, the IC50 of resistance to chloramphenicol for the same cells is 100 μg/ml. […]

In brackets after ≈: the same amount, converted by molar mass. Like-named read-outs stand apart in the source and are kept apart here.

Method for E. coli DH10B cells: E. coli DH10B cells cotransformed with pLEIZ and pBK-LW1RS were grown in minimal media containing 1% glycerol and 0.3 mM leucine (GMML media) with 25 μg/mL kanamycin, 34 μg/mL of chloramphenicol, and 1.0 mM p-acetyl-(±)-phenylalanine. When cells reach an OD600 of 0.5, isopropyl-β-D-thiogalactopyranoside (IPTG) (1 mM) was added to induce polypeptide expression.
To test the ability of the evolved synthetase and the mutRNACUA^Tyr to selectively incorporate p-acetyl-L-phenylalanine into polypeptides, an amber stop codon was substituted at a permissive site (Lys7) in the gene for the Z domain of staphylococcal protein A (32) with a COOH-terminal His6 tag. […] Cells transformed with the mutRNACUA^Tyr, LW1RS and Z domain gene (Lys7TAG) were grown in the presence of 1 mM p-acetyl-(±)-phenylalanine.

Consider `CC(=O)c1ccc(CC(N)C(=O)O)cc1` (racemic) [p-acetyl-(±)-phenylalanine], for which, in the series on E. coli DH10B cells, the “effect on growth rate of cells” value is given as “did not affect the growth rate of cells”.
In the case of `CC(=O)c1ccc(C[C@H](N)C(=O)O)cc1` [p-acetyl-L-phenylalanine], the “fidelity for the incorporation” value in series [1] was > 99.8%.
What is called IC50 is the concentration at which inhibition is half-maximal. As for `O=C(N[C@H](CO)[C@H](O)c1ccc([N+](=O)[O-])cc1)C(Cl)Cl` [chloramphenicol], the IC50 in series [2] (in the absence of p-acetyl-L-phenylalanine) amounted to 9 µg/mL (≈ 27.9 µM); in series [2] (in the presence of p-acetyl-L-phenylalanine), 120 µg/mL; in series [3] (in the presence of m-acetyl phenylalanine, read-out: IC50 of resistance to chloramphenicol), 100 µg/mL; in series [3] (read-out: IC50 of chloramphenicol resistance), 20 µg/mL (≈ 61.9 µM). The “chloramphenicol concentration on which cells survived” value in series [2] (GMML plates, in the absence of p-acetyl-L-phenylalanine) was 9 µg/mL. Moreover, in series [2] (GMML plates, in the presence of p-acetyl-L-phenylalanine), the “chloramphenicol concentration in which cells survived” value was determined as 120 µg/mL.
